BindingDB's records for doi:10.1021/bi7018282 (Cornell University, 2008)

Target: T1, Thiamine-binding periplasmic protein (Escherichia coli (strain K12), UniProt P31550)
T1 sequence (P31550 whole entry): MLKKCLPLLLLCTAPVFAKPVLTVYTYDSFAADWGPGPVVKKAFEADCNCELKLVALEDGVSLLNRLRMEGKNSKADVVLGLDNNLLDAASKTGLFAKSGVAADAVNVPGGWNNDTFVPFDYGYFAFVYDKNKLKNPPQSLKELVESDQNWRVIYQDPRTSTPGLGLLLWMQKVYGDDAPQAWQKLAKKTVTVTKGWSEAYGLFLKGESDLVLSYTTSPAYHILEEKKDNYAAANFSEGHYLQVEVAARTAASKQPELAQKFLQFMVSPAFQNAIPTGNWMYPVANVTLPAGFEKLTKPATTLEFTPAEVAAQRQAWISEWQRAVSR
Test: Titration Assay
Experimental: the kd for ThOH, ThMP and ThDP were determined using titration experiments in which the change in the intrinsic protein fluorescence was monitored as a function of ligand concentration.

Row | SMILES | Kd [nM]
1 | Cc1ncc(C[n+]2csc(CCO)c2C)c(N)n1 [Vitamin B 1] | 3.8
2 | Cc1ncc(C[n+]2csc(CCO[P@](=O)(O)OP(=O)(O)O)c2C)c(N)n1 [ThDP] | 7.4
